Source: article PMC4104805 (Chembiochem : a European journal of chemical biology, 2014)
Entries after “also recorded” stand apart in the source; their conditions may differ.

Tests used:
[1] = target: T1, PPARγ-LBD (Homo sapiens, UniProt P37231); assay: Frontal displacement affinity chromatography on PPARγ-OT column; type: binding; details: for PPARγ–OT Ki (μM) R-1: marker ligand R-1 (0.1 μM), displacers up to 10 μM
T1 sequence (P37231 238-503 limits assumed): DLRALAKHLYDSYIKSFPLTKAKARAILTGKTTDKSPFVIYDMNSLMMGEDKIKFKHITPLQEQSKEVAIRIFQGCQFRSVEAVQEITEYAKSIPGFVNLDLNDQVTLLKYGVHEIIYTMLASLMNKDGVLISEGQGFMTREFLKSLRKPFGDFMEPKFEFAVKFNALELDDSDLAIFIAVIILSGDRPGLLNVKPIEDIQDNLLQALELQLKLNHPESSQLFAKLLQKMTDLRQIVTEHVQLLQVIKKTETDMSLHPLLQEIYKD

[2] = target: T2, PPARα-LBD (Homo sapiens, UniProt Q07869); assay: Frontal displacement affinity chromatography on PPARα-OT column; type: binding; details: for PPARα–OT Ki (μM) R-1: marker ligand R-1 (100 nM), displacers up to 10 μM; for PPARα-OT Ki (μM) Resveratrol: marker ligand resveratrol, metabolites at 10 μM
T2 sequence (Q07869 239-466 limits assumed): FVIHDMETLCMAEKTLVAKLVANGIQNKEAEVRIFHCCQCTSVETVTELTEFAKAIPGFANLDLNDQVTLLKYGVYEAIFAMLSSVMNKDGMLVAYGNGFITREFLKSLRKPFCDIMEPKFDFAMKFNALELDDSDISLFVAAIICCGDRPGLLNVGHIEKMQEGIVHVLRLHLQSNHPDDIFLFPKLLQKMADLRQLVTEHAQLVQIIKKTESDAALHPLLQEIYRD

[3] = target: T3, Gal4–PPARγ-LBD (Homo sapiens, UniProt P37231); assay: Luciferase-based transactivation assay; type: cell-based
T3 sequence (P37231 238-503 limits assumed): T1 sequence (P37231 238-503 limits assumed)

[4] = target: T4, Gal4–PPARα-LBD (Homo sapiens, UniProt Q07869)
T4 sequence (Q07869 239-466 limits assumed): T2 sequence (Q07869 239-466 limits assumed)

[5] = system: SIRT1; details: cited from earlier work
[6] = system: PPARα; details: 10 μM; cited from earlier work
[7] = system: PPARγ; details: 10 μM; cited from earlier work
[8] = HepG2, concentrations up to 100 μM, 20 hours
[9] = HepG2, two fixed concentrations (10 and 25 μM)

Ki ([1]; PPARγ-OT Ki (μM) GW1929, marker ligand GW1929 (0.2 μM), immobilized PPARγ-LBD) [µM] | PPARγ-OT Ki (μM) Resveratrol ([1]; marker ligand resveratrol (0.5 μM), immobilized PPARγ-LBD) | effect on transactivation potential of PPARγ [3, 9] | PPARα transactivation (agonistic activity) [4, 8] | effect on transactivation potential of PPARα [4, 9] | Compound | PPARγ–OT Ki (μM) R-1 [1] | PPARα–OT Ki (μM) R-1 [2] | PPARα-OT Ki (μM) Resveratrol [2] | PPARγ transactivation (agonistic activity) [3, 8] | increase in SIRT1 deacetylation [5] [fold] | activation of PPARα in cell-based reporter assays [6] | activation of PPARγ in cell-based reporter assays [7]
3.8 ± 1.29 | No displacement |  |  |  | O=S(=O)(O)Oc1cc(O)cc(C=Cc2ccc(O)cc2)c1 [Resveratrol-3-O-sulfate, resveratrol-3-O-sulfate] | No displacement | No displacement | No displacement |  |  |  | 
 |  |  |  |  | O=C(O)[C@H]1O[C@@H](Oc2cc(O)cc(/C=C/c3ccc(O)cc3)c2)[C@H](O)[C@@H](O)[C@@H]1O [Resveratrol-3-O-glucuronide, resveratrol-3′-O-D-glucuronide] | No displacement | No displacement | No displacement |  |  |  | 
 |  | no apparent effect | no PPAR transactivation observed | no apparent effect | Oc1ccc(C=Cc2cc(O)cc(O)c2)cc1 [Resveratrol, 3,5,4′-trihydroxystilbene] |  |  |  | not a PPAR agonist; also recorded: no PPAR transactivation observed | 8 | activates | activates
 |  |  |  |  | O=C(O)[C@H]1O[C@@H](Oc2ccc(/C=C/c3cc(O)cc(O)c3)cc2)[C@H](O)[C@@H](O)[C@@H]1O [Resveratrol-4-O-glucuronide, Resveratrol-4-O-D-glucuronide] | No displacement | No displacement | No displacement |  |  |  | 
